Measurements: patent US20070276034A1, “Compounds, compositions and methods for the treatment of synucleinopathies” (priority 2002, published 2007)
Read-outs that look alike come from different tables or passages of the source.

Tests used:
Type in all cases: biochemical
Aβ 1-42 fibrils [1] = molecular target: T1, Aβ 1-42 fibrils (Homo sapiens, UniProt P05067); assay: Thioflavin T fluorometry - disruption of pre-formed Aβ 1-42 Alzheimer's fibrils; conditions: 25 μM pre-fibrillized Aβ 1-42, 37° C., 3 days; for inhibition: read-out: % Inhibition Aβ (result ± S.D.)
T1 construct: purchased Bachem Inc
Text: In one study, Thioflavin T fluorometry was used to determine the effects of the compounds, and of EDTA (as a negative control). In this assay Thioflavin T binds specifically to fibrillar amyloid, and this binding produces a fluorescence enhancement at 485 nm that is directly proportional to the amount of amyloid fibrils formed. The higher the fluorescence, the greater the amount of amyloid fibrils formed (Naki et al., Lab. Invest. 65:104-110, 1991; Levine III, Protein Sci. 2:404-410, 1993; Amyloid: Int. J. Exp. Clin. Invest. 2:1-6, 1995).
(§1) In this study, 25 μM of pre-fibrillized Aβ 1-42 (Bachem Inc) was incubated at 37° C. for 3 days either alone, or in the presence of one of the compounds or EDTA (at Aβ:test compound weight ratios of 1:1, 1:0.1, 1:0.01 or 1:0.001). Following 3-days of co-incubation, 50 μl of each incubation mixture was transferred into a 96-well microtiter plate containing 150 μl of distilled water and 50 μl of a Thioflavin T solution (i.e. 500 mM Thioflavin T in 250 mM phosphate buffer, pH 6.8). The fluorescence was read at 485 nm (444 nm excitation wavelength) using an ELISA plate fluorometer after subtraction with buffer alone or compound alone, as blank.

Aβ 1-42 fibrils [2] = molecular target: T1, Aβ 1-42 fibrils; assay: Circular dichroism spectroscopy of Aβ 1-42 fibrils; conditions: for disruption of β-sheet structure in Aβ 1-42 fibrils (CD minima at 218 nm): 3 days co-incubation, 25 μM Aβ 1-42 (FIG. 1, FIG. 2); for dose-response of disruption of β-sheet structure of Aβ 1-42 fibrils (CD minima at 218 nm): Aβ:test compound wt/wt ratios of 1:0.1, 1:1 and 1:10 (FIG. 3)
Description: Circular dichroism (CD) spectroscopy is a method that can be used to determine the effects of test compounds to disrupt the secondary structure conformation of amyloid fibrils. In one study, as described in this example, circular dichroism spectroscopy was used to determine the effects of different compounds of the invention on β-sheet conformation of Aβ 1-42 fibrils. For this study, Aβ 1-42 (Bachem Inc., Torrance, Calif.) was first dissolved in a 2 mM NaOH solution, maintaining the pH of these solutions above 10. […] Aβ 1-42 was then incubated at 37° C. in the absence or presence of different compounds at an Aβ:test compound wt/wt ratios of 1:0.1, 1:1 and 1:10. After 3 days of incubation, CD spectra were recorded on a Jasco 810 spectropolarimeter (Easton, Md.). All CD spectra were collected with 0.05 cm quartz cells. Wavelength traces were scanned from 190-260 nm at 0.5 nm increments with a bandwidth of 5 nm, at a scan speed of 10 nm/minute, a response time of 32 seconds, and a data pitch of 0.5 nm. The whole system was equilibrated and continuously flushed with nitrogen at 10 ml/minute. […] Ellipticity in degrees was converted to MRE ([Q]; molar residue ellipticity) using the formula [Q]=100•[…]; where Q is the ellipticity in degrees; […]

IAPP fibrils [3] = molecular target: T2, IAPP fibrils (Homo sapiens, UniProt P10997); assay: Thioflavin T fluorometry - disruption of type 2 diabetes IAPP fibrils; conditions: 25 μM pre-fibrillized IAPP, 37° C., 3 days; for inhibition: read-out: % Inhibition IAPP (result ± S.D.)
T2 construct: purchased Bachem Inc
T2 sequence (P10997 34-70 limits assumed): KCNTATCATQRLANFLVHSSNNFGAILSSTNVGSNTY
Description: In this assay Thioflavin T binds specifically to fibrillar amyloid, and this binding produces a fluorescence enhancement at 485 nm that is directly proportional to the amount of IAPP fibrils present. The higher the fluorescence, the greater the amount of IAPP fibrils present (Naki et al, Lab. Invest. 65:104-110, 1991; Levine III, Protein Sci. 2:404-410, 1993; Amyloid: Int. J. Exp. Clin. Invest. 2:1-6, 1995).
as §1, with “IAPP” for “Aβ 1-42”, “IAPP:test” for “Aβ:test”

IAPP fibrils [4] = molecular target: T2, IAPP fibrils; assay: Congo red binding assay with IAPP fibrils; conditions: 3-day incubation
Description: (§2) In the Congo red binding assay the ability of a given test compound to alter amyloid (in this case, IAPP) binding to Congo red is quantified. In this assay, IAPP and test compounds were incubated for 3 days and then vacuum filtered through a 0.2 μm filter. The amount of IAPP retained in the filter was then quantitated following staining of the filter with Congo red. After appropriate washing of the filter, any lowering of the Congo red color on the filter in the presence of the test compound (compared to the Congo red staining of the amyloid protein in the absence of the test compound) was indicative of the test compound's ability to diminish/alter the amount of aggregated and congophilic IAPP.
In the study, the ability of IAPP fibrils to bind Congo red in the absence or presence of increasing amounts of the compounds or EDTA (at IAPP:test compound weight ratios of 1:1, 1:0.1, 1:0.01 or 1:0.001) was determined.

monomeric Aβ 1-42 = molecular target: T3, monomeric Aβ 1-42 (Homo sapiens, UniProt P05067); assay: SDS-PAGE/Western blot of Aβ 1-42 after incubation with compounds; conditions: 25 μM pre-fibrillized Aβ 1-42, 37° C., 3 days, 0.2 μm filtrate, antibody 6E10
T3 construct: purchased Bachem Inc
Description: In this latter study, triplicate samples of pre-fibrillized Aβ 1-42 (25 μM) was incubated at 37° C. for 3 days, alone or in the presence of the compounds or EDTA. Five micrograms of each sample was then filtered through a 0.2 μm filter. Protein recovered from the filtrate was then loaded, and ran on a 10-20% Tris-Tricine SDS-PAGE, blotted to nitrocellulose and detected using an Aβ-antibody (clone 6E10; Senetek).

Aβ 1-42 fibrils [5] = molecular target: T1, Aβ 1-42 fibrils; assay: Congo red binding assay with Aβ 1-42 fibrils; conditions: 3-day incubation
Description: as §2, with “a” for “a given”, “Aβ)” for “IAPP)”, “Aβ 1-42” for “IAPP”, “Aβ.” for “IAPP.”
In one study, the ability of Aβ fibrils to bind Congo red in the absence or presence of increasing amounts of the compounds or EDTA (at Aβ:test compound weight ratios of 1:1, 1:0.1, 1:0.01 or 1:0.001) was determined.

[6] = Aβ:test compound wt/wt ratio 1:0.001
[7] = Aβ:test compound wt/wt ratio 1:0.01
[8] = Aβ:test compound wt/wt ratio 1:0.1
[9] = Aβ:test compound wt/wt ratio 1:1
[10] = IAPP:test compound wt/wt ratio 1:0.001
[11] = IAPP:test compound wt/wt ratio 1:0.01
[12] = IAPP:test compound wt/wt ratio 1:0.1
[13] = IAPP:test compound wt/wt ratio 1:1

T1 sequence (P05067 672-713): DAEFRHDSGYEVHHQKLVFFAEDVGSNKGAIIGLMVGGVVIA
T3 sequence (P05067 672-713): as above

Row | Structure (SMILES) | inhibition (Aβ 1-42 fibrils [1]; [6]) | inhibition (Aβ 1-42 fibrils [1]; [7]) | inhibition (Aβ 1-42 fibrils [1]; [8]) | inhibition (Aβ 1-42 fibrils [1]; [9]) | disruption of β-sheet structure in Aβ 1-42 fibrils (CD minima at 218 nm) (Aβ 1-42 fibrils [2]) | dose-response of disruption of β-sheet structure of Aβ 1-42 fibrils (CD minima at 218 nm) (Aβ 1-42 fibrils [2]) | inhibition (IAPP fibrils [3]; [10]) | inhibition (IAPP fibrils [3]; [11]) | inhibition (IAPP fibrils [3]; [12]) | inhibition (IAPP fibrils [3]; [13]) | % Inhibition IAPP (result ± S.D.), Congo red binding (IAPP fibrils [4]; [10]) | % Inhibition IAPP (result ± S.D.), Congo red binding (IAPP fibrils [4]; [11]) | % Inhibition IAPP (result ± S.D.), Congo red binding (IAPP fibrils [4]; [12]) | % Inhibition IAPP (result ± S.D.), Congo red binding (IAPP fibrils [4]; [13]) | detection of Aβ 1-42 monomers (~4 kilodalton band) on Western blot (monomeric Aβ 1-42) | other results
1 | Oc1ccc(CN[C@@H]2CCCC[C@H]2NCc2ccc(O)c(O)c2)cc1O (relative stereo) [Compound 12, N,N′-bis(3,4-dihydroxybenzyl)-trans-1,2-diaminocyclohexane] | 0% | 10.8 ± 21.9% | 82 ± 1.13% | 99.7 ± 0.17% | marked disruption of β-sheet structure | dose-dependent decrease in the minima | 13 ± 10.3% | 37.5 ± 0.76% | 86 ± 0.76% | 99.9 ± 0.19% | 0.0 ± 2.40% | 6.9 ± 2.45% | 8.3 ± 0.85% | 39.8 ± 0.26% |  | 
2 | CN1C2CCC1C(Cc1ccc(O)c(O)c1)C(=O)C2Cc1ccc(O)c(O)c1 (stereo not drawn) [Compound 19, 2,4-bis(3,4-dihydroxybenzyl)-3-tropinone] |  |  |  |  |  |  |  |  |  |  |  | 6.0 ± 0.78% | 21.0 ± 3.70% | 49.3 ± 3.97% | not detected | % Inhibition Aβ (result ± S.D.) (Aβ 1-42 fibrils [1]; [6]): 10.8 ± 1.38%; % Inhibition Aβ (result ± S.D.) (Aβ 1-42 fibrils [1]; [7]): 46.2 ± 2.98%; % Inhibition Aβ (result ± S.D.) (Aβ 1-42 fibrils [1]; [8]): 91.1 ± 0.66%; % Inhibition Aβ (result ± S.D.) (Aβ 1-42 fibrils [1]; [9]): 99.1 ± 0.56%; % Inhibition Aβ (result ± S.D.), Congo red binding (Aβ 1-42 fibrils [5]; [7]): 7.4 ± 2.20%; % Inhibition Aβ (result ± S.D.), Congo red binding (Aβ 1-42 fibrils [5]; [8]): 22.4 ± 2.19%; % Inhibition Aβ (result ± S.D.), Congo red binding (Aβ 1-42 fibrils [5]; [9]): 48.1 ± 2.00%; % Inhibition IAPP (result ± S.D.) (IAPP fibrils [3]; [10]): 16.7 ± 10.20%; % Inhibition IAPP (result ± S.D.) (IAPP fibrils [3]; [11]): 51.7 ± 2.98%; % Inhibition IAPP (result ± S.D.) (IAPP fibrils [3]; [12]): 94.0 ± 0.10%; % Inhibition IAPP (result ± S.D.) (IAPP fibrils [3]; [13]): 100.0 ± 0.24%
3 | O=C(C=Cc1ccc(O)c(O)c1)NCc1ccc(O)c(O)c1 [Compound 61, 3,4-dihydroxycinnamic acid 3,4-dihydroxybenzylamide] | 26 ± 7.51% | 16.9 ± 1.39% | 80.1 ± 4.76% | 100 ± 0.41% | marked disruption of β-sheet structure | dose-dependent decrease in the minima | 0.5 ± 6.33% | 35.4 ± 5.68% | 83.6 ± 1.27% | 96.8 ± 0.47% | 0.0 ± 3.87% | 4.0 ± 1.78% | 0.0 ± 7.07% | 23.7 ± 0.39% |  | 
4 | O=C(NCCc1ccc(O)c(O)c1)Nc1ccc(O)c(O)c1 [Compound 78, 1-(3,4-dihydroxyphenyl)-3-(3,4-dihydroxyphenethyl)urea] | 22.4 ± 5.63% | 57.8 ± 4.63% | 89.7 ± 1.8% | 100 ± 0.78% | marked decrease in the minima |  | 15.3 ± 4.73% | 58.3 ± 1.2% | 92.4 ± 0.27% | 99.5 ± 0.26% | 6.6 ± 3.04% | 19.9 ± 2.12% | 16.7 ± 6.80% | 56.3 ± 5.32% | not detected | 
